In patent publication US20240294881A1, “CELL CULTURE SUPPLEMENT FOR PRODUCING STEM CELLS, AND METHOD FOR PRODUCING STEM CELLS” (OPTICELL, INC, priority 2021, published 2024):

Legend:
Assay in all cases: Real-time PCR of cancer stem cell and undifferentiated stem cell marker genes in cancer cell spheroids
Assay type in all cases: cell-based, human
[1] = tested on: A549 lung cancer cells; details: control no supplement, 2D adhesion proliferation, day 4 = 1.0
Experimental: (§1) A culture vessel treated with the cell culture supplement was prepared in the same manner as in Example 7, and the same three types of cancer cells as those in Example 7 were cultured. On day 4 and day 15 after the start of culture, spheroids of each of the three types of cancer cells were taken from the culture vessel and collected in an individual 15-mb centrifuge tube, followed by washing with phosphate buffered saline (−). After removal of the medium, cancer cells cultured in the plate free of the cell culture supplement (control) were washed with PBS (−), detached from the plate with 0.05% trypsin-EGTA and dissociated. The cancer cells were then collected in a 15-mL centrifuge tube and washed again with PBS (−). mRNA was extracted from the collected spheroids and control cells, and the expression of cancer stem cell marker genes was analyzed by real-time PCR.
(§2) Specifically, a NucleoZOL reagent (Macherey-Nagel) reagent was added to each type of cells, and RNA was extracted according to the protocol recommended by the reagent manufacturer and used as template RNA for detecting stem cell markers. For real-time PCR analysis, PCR probes from QuantiFast Probe RT-PCR Kits (QIAGEN; No. 204454) and TaqMan Gene Expression Assay Probe (Thermo Fisher Scientific) were used. PCR analysis was performed with a Rotor-Gene Q (QIAGEN) apparatus. For probes for detecting the expression of cancer stem cell marker genes, the following three PCR probes were used: CD24 (mucin-type glycoprotein, ligand for P-selectin, Oncogene), CD44 (cell surface glycoprotein involved cell-cell interaction, adhesion and migration, cancer stem cell marker), CD133 (five transmembrane glycoprotein, stem cell marker and cancer stem cell marker protein). B-actin was used as an endogenous control gene. For probes for detecting the expression of undifferentiated stem cell marker genes, three transcription factors, SOX2 (sex-determining region Y-box 2), OCT4 (octamer binding transcription factor 4), and NANOG (homeodomain transcription factor), which are used in the production of iPS cells, were used; and β-actin was used as the endogenous control gene. In the gene expression analysis, relative quantification was performed according to the ΔΔCt method (Delta Delta Ct method). The results of analysis according to the ΔΔCt method show the amount of a gene expressed by control cells under the conditions of “no cell culture supplement, 2D adhesion proliferation, day 4” as “1.0” in relative terms, and the increase rate in “the expression level in spheroid proliferation on day 15” was determined by comparison (FIGS. 23 to 25).
(§3) Coating of a culture vessel was completed in the same manner as in Examples 7 and 11, and three types of cancer cells, A549 cells, ES2 cells, and 143B cells, were cultured. For probes for detecting the expression of undifferentiated stem cell marker genes, the following three transcription factors were used: SOX2 (sex-determining region Y-box 2), OCT4 (octamer binding transcription factor 4), and NANOG (homeodomain transcription factor); and β-actin was used as an endogenous control gene. In the gene expression analysis, relative quantification was performed according to the ΔΔCt method (Delta Delta Ct method). The results of analysis according to the ΔΔCt method show the amount of a gene expressed by control cells under the conditions of “no cell culture supplement, 2D adhesion proliferation, day 4” as “1.0” in relative terms, and the increase rate in “the expression level in spheroid proliferation on day 15” was determined by comparison (FIGS. 26 to 28).

[2] = tested on: ES2 ovarian cancer cells; details: for CD24 gene expression level (increase vs control) / CD44 gene expression level (increase vs control) / NANOG gene expression level (increase vs control) / OCT4 gene expression level (increase vs control) / SOX2 gene expression level (increase vs control): control no supplement, 2D adhesion proliferation, day 4 = 1.0
Experimental: as §1, §2, §3

[3] = tested on: HOS-143B osteosarcoma cells; details: control no supplement, 2D adhesion proliferation, day 4 = 1.0
Experimental: as §1, §2, §3

## (Pro-Hyp-Gly)n [cell culture supplement]
[1]; day 4 of spheroid culture
  CD24 gene expression level (increase vs control): 2.2 fold
  CD44 gene expression level (increase vs control): 1.6 fold
  CD133 gene expression level (increase vs control): 3.4 fold
  NANOG gene expression level (increase vs control): 10.6 fold
  OCT4 gene expression level (increase vs control): 1.6 fold
  SOX2 gene expression level (increase vs control): 5.0 fold
[1]; day 15 of spheroid culture
  CD24 gene expression level (increase vs control): 4.2 fold
  CD44 gene expression level (increase vs control): 2.9 fold
  CD133 gene expression level (increase vs control): 13.5 fold
  NANOG gene expression level (increase vs control): 55.7 fold
  OCT4 gene expression level (increase vs control): 3.7 fold
  SOX2 gene expression level (increase vs control): 6.0 fold
[2]; day 4 of spheroid culture
  CD24 gene expression level (increase vs control): 11.6 fold
  CD44 gene expression level (increase vs control): 1.3 fold
  NANOG gene expression level (increase vs control): 3.9 fold
  OCT4 gene expression level (increase vs control): 2.6 fold
  SOX2 gene expression level (increase vs control): 1.1 fold
[2]; day 15 of spheroid culture, CD133 on day 4 in spheroid culture taken as control value (1.0), not detected in adhesion proliferation cells
  CD133 gene expression level (increase vs day 4 spheroid culture): 8.5 fold
[2]; day 15 of spheroid culture
  CD24 gene expression level (increase vs control): 63.2 fold
  CD44 gene expression level (increase vs control): 2.9 fold
  NANOG gene expression level (increase vs control): 10.9 fold
  OCT4 gene expression level (increase vs control): 4.6 fold
  SOX2 gene expression level (increase vs control): 3.4 fold
[3]; day 4 of spheroid culture
  CD24 gene expression level (increase vs control): 1.34 fold
  CD44 gene expression level (increase vs control): 2.3 fold
  CD133 gene expression level (relative to control, printed as decreased): 0.3 fold
  NANOG gene expression level (increase vs control): 1.6 fold
  OCT4 gene expression level (increase vs control): 2.5 fold
  SOX2 gene expression level (increase vs control): 3.5 fold
[3]; day 15 of spheroid culture
  CD24 gene expression level (increase vs control): 1.2 fold
  CD44 gene expression level (increase vs control): 1.9 fold
  CD133 gene expression level (increase vs control): 2.1 fold
  NANOG gene expression level (increase vs control): 1.4 fold
  OCT4 gene expression level (increase vs control): 2.4 fold
  SOX2 gene expression level (increase vs control): 1.6 fold
